PMC4931907 (eLife, 2016)
pIC50: −log10 of the molar value.

Columns and labels:
[1] = target: T1, PCAF (Homo sapiens, UniProt Q92831); assay: In vitro HAT assay with recombinant PCAF, histones and 14C acetyl-CoA; assay type: biochemical
T1 construct: purchased Enzo Life Sciences
Method: (§1) To determine whether salicylate inhibits p300 and other acetyltransferases, we used in vitro acetylation assays with purified histones and a recombinant p300 catalytic domain.
(§2) Figure 1. Salicylate inhibits CBP/p300 in vitro. (A) Recombinant p300, CBP, GCN5, or PCAF and histones were incubated with ^14C-labeled acetyl-CoA with or without sodium salicylate, separated by SDS-PAGE, analyzed by autoradiography, and quantified with Image J software. Acetylation levels are relative to those in untreated controls. (B) Thermal stability assay for sodium salicylate binding to the p300 HAT domain. Tm, melting temperature. […] Histone acetylation was measured with several concentrations of acetyl-CoA (C) or histone (D) in the presence or absence of sodium salicylate. […] Acetylation of an H4(3–14) peptide was monitored using direct microfluidic mobility shift analysis as previously described ([Montgomery et al., 2014]; [Fanslau et al., 2010]). […]
(§3) Recombinant HAT ([…]), either p300, CBP, PCAF, or GCN5 (Enzo Life Sciences), and 10 µg of histones (Sigma) were incubated with sodium salicylate (Sigma) in reaction buffer (50 mM HEPES, pH 8.0, 10% glycerol, 1 mM) at 30°C for 30 min and then with 0.1 mCi of ^14C acetyl-CoA at 30°C for 60 min. Reactions were stopped by adding 6x sample buffer and analyzed by SDS-PAGE. […]

[2] = target: T2, CBP (Homo sapiens, UniProt Q92793); assay: In vitro HAT assay with recombinant CBP, histones and 14C acetyl-CoA; assay type: biochemical; settings: read-out: IC50, CBP-mediated acetyltransferase activity
T2 construct: purchased Enzo Life Sciences
T2 sequence (Q92793 whole entry): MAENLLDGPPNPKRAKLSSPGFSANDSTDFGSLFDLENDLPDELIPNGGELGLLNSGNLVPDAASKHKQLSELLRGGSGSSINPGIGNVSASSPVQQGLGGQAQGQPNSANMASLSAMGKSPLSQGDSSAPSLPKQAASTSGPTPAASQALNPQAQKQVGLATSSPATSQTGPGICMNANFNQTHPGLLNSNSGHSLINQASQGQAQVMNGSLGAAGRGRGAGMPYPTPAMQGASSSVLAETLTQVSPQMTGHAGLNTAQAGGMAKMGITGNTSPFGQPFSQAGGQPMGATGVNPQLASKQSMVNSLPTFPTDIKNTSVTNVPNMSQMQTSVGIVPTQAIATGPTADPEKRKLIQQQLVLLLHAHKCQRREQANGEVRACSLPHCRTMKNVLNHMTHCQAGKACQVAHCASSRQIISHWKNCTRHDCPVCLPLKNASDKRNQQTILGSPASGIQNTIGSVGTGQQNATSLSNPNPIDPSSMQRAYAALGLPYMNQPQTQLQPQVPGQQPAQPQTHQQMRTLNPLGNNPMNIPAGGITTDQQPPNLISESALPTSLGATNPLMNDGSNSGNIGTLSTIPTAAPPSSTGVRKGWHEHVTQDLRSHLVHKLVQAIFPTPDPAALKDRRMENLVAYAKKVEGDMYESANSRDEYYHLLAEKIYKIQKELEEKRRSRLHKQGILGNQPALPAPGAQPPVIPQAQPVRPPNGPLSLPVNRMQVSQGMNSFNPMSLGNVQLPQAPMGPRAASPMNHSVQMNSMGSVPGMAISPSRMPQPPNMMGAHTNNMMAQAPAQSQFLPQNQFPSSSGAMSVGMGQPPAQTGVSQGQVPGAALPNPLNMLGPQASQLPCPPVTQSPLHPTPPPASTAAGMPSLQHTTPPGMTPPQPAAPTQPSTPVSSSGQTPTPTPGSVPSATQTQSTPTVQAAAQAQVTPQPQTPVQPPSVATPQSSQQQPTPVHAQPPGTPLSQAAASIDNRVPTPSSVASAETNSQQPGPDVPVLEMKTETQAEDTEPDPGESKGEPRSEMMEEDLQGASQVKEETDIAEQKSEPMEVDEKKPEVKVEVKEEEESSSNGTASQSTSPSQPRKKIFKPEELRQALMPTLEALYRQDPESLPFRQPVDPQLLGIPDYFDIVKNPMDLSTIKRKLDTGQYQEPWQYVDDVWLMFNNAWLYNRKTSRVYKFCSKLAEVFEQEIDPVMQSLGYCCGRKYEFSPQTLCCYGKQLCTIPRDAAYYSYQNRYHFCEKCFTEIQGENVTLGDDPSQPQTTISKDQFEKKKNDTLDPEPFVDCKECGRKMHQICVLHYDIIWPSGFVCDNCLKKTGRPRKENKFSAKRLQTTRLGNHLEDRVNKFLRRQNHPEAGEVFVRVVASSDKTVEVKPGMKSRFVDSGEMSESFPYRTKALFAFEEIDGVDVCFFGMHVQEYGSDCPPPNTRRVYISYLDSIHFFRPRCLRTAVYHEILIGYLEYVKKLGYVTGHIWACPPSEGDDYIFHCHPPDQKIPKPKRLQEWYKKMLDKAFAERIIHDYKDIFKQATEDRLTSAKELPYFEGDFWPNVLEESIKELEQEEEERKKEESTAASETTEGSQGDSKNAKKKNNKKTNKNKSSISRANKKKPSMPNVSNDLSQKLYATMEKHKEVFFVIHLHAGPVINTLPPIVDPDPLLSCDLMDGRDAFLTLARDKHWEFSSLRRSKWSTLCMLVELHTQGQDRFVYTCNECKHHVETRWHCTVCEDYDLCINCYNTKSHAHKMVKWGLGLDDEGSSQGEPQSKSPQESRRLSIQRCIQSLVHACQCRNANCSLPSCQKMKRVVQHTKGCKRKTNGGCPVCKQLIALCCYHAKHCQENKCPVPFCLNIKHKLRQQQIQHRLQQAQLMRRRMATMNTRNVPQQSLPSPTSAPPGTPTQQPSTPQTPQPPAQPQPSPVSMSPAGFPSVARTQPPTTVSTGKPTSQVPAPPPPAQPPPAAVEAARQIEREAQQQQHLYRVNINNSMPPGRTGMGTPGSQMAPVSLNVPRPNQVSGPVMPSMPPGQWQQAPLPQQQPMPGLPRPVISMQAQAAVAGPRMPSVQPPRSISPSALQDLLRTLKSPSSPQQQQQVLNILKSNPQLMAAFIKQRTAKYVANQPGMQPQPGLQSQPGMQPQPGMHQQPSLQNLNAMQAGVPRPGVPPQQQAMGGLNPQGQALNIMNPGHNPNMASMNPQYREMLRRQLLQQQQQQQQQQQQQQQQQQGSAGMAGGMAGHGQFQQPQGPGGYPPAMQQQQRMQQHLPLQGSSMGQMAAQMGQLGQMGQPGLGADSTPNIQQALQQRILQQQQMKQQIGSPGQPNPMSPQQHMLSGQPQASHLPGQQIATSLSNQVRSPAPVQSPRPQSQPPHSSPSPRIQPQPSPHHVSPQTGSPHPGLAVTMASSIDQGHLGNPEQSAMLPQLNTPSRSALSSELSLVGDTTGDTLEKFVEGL
Method: as §1, §2, §3

[3] = target: T3, p300 HAT domain (residues 1279–1666, Tyr1467Phe) (Homo sapiens, UniProt Q09472, Y1467F); assay: Thermal stability assay (SYPRO orange); assay type: binding; settings: p300/acetyl-CoA without salicylate 48.6°C
T3 construct: 6-His (N, cleaved yes); made in house; host or cells: E. coli BL21 (DE3)
T3 sequence (Q09472 1279-1666 Y1467F): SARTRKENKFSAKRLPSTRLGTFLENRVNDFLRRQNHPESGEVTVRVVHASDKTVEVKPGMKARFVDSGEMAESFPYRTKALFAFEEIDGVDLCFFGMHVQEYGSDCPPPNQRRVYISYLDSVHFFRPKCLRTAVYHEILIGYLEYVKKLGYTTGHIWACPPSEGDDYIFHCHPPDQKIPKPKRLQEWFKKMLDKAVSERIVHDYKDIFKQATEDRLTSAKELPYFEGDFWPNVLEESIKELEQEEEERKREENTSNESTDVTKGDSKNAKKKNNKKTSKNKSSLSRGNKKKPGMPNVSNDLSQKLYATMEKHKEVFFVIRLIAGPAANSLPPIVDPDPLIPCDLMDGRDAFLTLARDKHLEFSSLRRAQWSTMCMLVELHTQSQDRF
Method: To confirm that salicylate binds to p300, we used thermal stability assays. A p300 HAT domain construct (residues 1279–1666) bearing an inactivating Tyr1467Phe mutation to facilitate purification of homogeneously hypoacetylated p300 was expressed and purified with an N-terminal 6-His tag from E. coli cells. The protein was further purified by chromatography and incubated with increasing concentrations of sodium salicylate for 30 min and with SYPRO orange dye (Invitrogen). Thermal melt curves were obtained by heating the protein from 20–95°C and monitoring fluorescence at 590 nm.
A thermal stability assay was used to assess the binding of salicylate to the p300 HAT domain. A p300 HAT domain construct (residues 1279–1666) bearing an inactivating Tyr1467Phe mutation to facilitate purification of homogeneously hypoacetyalted p300 was cloned into a pET-DUET vector with an N-terminal 6-His tag and expressed in BL21 (DE3) E. coli cells. […]
The final concentration of p300 was 2 μM in reaction buffer (0.1 M HEPES, pH 7.5, 150 mM NaCl, and 5 mM -mercaptoethanol). […] Thermal melt curves were obtained by heating the protein from 20–95°C and monitoring fluorescence at 590 nm with a 7900HT Fast Real Time PCR System (Applied Biosystems). […]

[4] = tested on: Kasumi-1 cells; assay: Kasumi-1 xenograft model in SCID mice; assay type: in vivo
Method: Figure 5. […] (A) and (B) Plots of tumor volume (A) and body weight (B). (C) and (D) Tumor size (C) and body weight (D) at sacrifice after 3 weeks of treatment. DOI: http://dx.doi.org/10.7554/eLife.11156.012
Severe combined immunodeficiency (SCID) mice were injected with 30 million Kasumi-1 cells in 100 μl of PBS and 100 μl of Matrigel. […] Tumor volume and body weight were recorded every 2 days. After 3 weeks of treatment, the mice were killed and tumor size and body weight were recorded. All mice were maintained according to National Institutes of Health guidelines and all animal use protocols were approved by the Institutional Animal Care and Use Committee.

[5] = 50 or 100 mg/kg orally, daily, 3 weeks

T1 sequence (Q92831 whole entry, species assumed): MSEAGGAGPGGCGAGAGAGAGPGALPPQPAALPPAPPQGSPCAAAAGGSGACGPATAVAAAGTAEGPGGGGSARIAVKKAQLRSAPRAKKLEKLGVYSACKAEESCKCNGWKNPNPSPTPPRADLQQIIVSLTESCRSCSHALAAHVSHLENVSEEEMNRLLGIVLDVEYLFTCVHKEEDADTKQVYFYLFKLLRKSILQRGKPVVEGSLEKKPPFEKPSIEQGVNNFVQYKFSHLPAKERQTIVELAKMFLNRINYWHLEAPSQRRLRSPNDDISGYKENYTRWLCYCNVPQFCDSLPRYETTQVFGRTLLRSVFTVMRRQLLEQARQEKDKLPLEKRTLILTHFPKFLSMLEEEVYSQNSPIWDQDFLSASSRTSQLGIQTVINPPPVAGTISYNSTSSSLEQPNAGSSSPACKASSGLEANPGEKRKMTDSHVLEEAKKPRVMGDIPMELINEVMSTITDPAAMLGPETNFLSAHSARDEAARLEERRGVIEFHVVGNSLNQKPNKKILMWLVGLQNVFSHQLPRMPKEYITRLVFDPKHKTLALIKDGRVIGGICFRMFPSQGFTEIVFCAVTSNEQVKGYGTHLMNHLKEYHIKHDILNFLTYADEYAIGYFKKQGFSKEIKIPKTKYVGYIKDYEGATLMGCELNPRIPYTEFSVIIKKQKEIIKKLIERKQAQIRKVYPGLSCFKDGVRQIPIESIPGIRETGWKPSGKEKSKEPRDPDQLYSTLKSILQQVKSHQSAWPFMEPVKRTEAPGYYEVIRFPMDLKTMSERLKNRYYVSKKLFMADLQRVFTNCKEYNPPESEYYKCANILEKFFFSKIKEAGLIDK

With O=C(O)c1ccccc1O [salicylate, salicylic acid] the “Inhibition of PCAF acetyltransferase” value [1] was “did not detectably inhibit”, the pIC50 [2] was 2.24 and the “Thermal unfolding temperature of p300 HAT domain” value ([3]; 10 mM salicylate) was 46.1 °C. The “Thermal unfolding temperature of p300 HAT domain” value ([3]; 25 mM salicylate) was 40.8 °C.

With O=C(O)c1cc(-c2ccc(F)cc2F)ccc1O [diflunisal] the “Effect on body weight” value [4, 5] was “minimal effects on body weight”, the Tumor volume [4, 5] was “reduced tumor volumes in a dose-dependent manner” and the “Tumor size versus vehicle-treated controls” value ([4]; after 3 weeks of treatment) was “significantly smaller”. For the same molecule, the Tumors at sacrifice ([4]; higher dose (100 mg/kg), after 3 weeks of treatment) was “most of the tumors had disappeared”.
